PMC3203990 (The FEBS journal, 2011)

Biological target: FtCCAP (Francisella tularensis class C acid phosphatase) (Francisella tularensis, UniProt Q5NH51)
Assay: biochemical

Chain of FtCCAP (Francisella tularensis class C acid phosphatase) (Q5NH51 22-247 limits assumed): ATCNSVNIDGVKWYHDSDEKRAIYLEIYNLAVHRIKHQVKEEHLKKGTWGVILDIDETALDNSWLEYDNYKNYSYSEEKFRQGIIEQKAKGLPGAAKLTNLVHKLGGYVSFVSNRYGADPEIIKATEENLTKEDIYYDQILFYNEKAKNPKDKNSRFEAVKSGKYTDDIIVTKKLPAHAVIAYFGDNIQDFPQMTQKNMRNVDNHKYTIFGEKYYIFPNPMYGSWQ

Question: With `Nc1ncnc2c1ncn2[C@@H]1O[C@H](COP(O)(O)=S)[C@@H](O)[C@H]1O` [AMPS] as the molecule, how does the Ki read?
Answer: Its Ki is 300 ± 30 nM.
